Like-named read-outs stand apart in the source and are kept apart here.
Tests used:
COX-2 = molecular target: T1, COX-2 (Rattus norvegicus, UniProt P35355); assay: Ex vivo cerebral biodistribution and blocking studies in quinolinic acid lesioned rats; set-up: species or system Wistar rats
T1 construct: from tissue; host or cells: brain regions of QA-lesioned Wistar rats (in vivo injection, ex vivo counting)
T1 sequence (P35355 18-604): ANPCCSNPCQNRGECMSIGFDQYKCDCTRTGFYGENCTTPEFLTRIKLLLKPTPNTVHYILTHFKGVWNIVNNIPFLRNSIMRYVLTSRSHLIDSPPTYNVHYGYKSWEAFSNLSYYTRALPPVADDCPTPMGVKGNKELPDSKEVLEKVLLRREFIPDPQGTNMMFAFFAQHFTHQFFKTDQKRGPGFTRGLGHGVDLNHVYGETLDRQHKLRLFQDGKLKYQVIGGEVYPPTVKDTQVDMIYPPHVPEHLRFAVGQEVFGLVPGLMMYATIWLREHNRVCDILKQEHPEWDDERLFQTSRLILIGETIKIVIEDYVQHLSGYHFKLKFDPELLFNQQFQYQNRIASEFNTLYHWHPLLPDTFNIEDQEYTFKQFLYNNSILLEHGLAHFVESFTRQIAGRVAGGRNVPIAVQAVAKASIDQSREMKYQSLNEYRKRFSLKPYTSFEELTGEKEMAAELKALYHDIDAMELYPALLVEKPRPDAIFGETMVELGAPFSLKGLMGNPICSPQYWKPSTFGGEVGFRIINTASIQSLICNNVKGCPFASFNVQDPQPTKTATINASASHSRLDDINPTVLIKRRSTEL
From the text: This model consists of a unilateral intrastriatal injection of quinolinic acid to induce excitotoxicity mediated via NMDA receptor activation. This animal model is well known in the literature to produce an inflammatory reaction induced by COX-2 activation in lesioned cerebral parenchyma.
The cerebral biodistribution of [^18F]16 in rats lesioned with QA was expressed as percent of injected dose per gram of tissue (%ID/g) and is shown in Figure 3.
Figure 3. Cerebral biodistribution of [^18F]16, 60 min after i.v. injection in rats, 7 days after focal intrastriatal injection of 150 nmol of quinolinic acid. In the “celecoxib” and “cold 16” groups, animals received an i.v. pre-injection (15 min) of the corresponding compound (3 mg/kg). Results are expressed as % injected dose/g tissue ± SEM. Cx: cortex; Stri: striatum; Hip: hippocampus, Cb: cerebellum.
Blocking in vivo experiments, consisting of a pretreatment with either celecoxib or cold 16 (3 mg/kg) 15 min before injection of the radiotracer, are also presented in Figure 3. […] This confirmed that the low in vivo accumulation observed consisted of nonspecific binding.
Animals. All procedures were conducted in accordance with the requirements of the European Community Council for the care of laboratory animals 2010/63/EU, and approved by the regional ethical committee (Authorization N°2015022011523044). Experiments were carried out on adult Wistar rats (Centre d’Elevage René Janvier, Le Genest-St-Isle, France) weighing 276 ± 19 g at the beginning of the experiments. Animals were housed in groups of two per cage in a temperature and humidity controlled environment (temperature 21 °C ± 1 °C; hygrometry 55% ± 5%), under a 12 h light/dark cycle with food and water available ad libitum.
Surgery: Surgery was performed under isoflurane (AErrane, Baxter, France) anaesthesia (4% for anaesthesia induction and thereafter 2% for its maintenance, in N2O-O2: 70%-30%). The animal's body temperature (36.8 ± 0.5 °C) was monitored with a homoeothermic probe throughout surgery. A unilateral striatal QA lesion was induced in 18 adult male Wistar rats as previously described^14. This procedure results in a well-delineated reproducible excitotoxic lesion to the striatum and ipsilateral cortex.
Ex vivo cerebral biodistribution studies were performed with [^18F]16 in QA lesioned animals at 7 days post lesion (n=6 per group). Rats were i.v. injected (penis vein) with [^18F]16 (2.5 ± 1 MBq) in 300 μL normal saline). […] Animals were sacrificed by decapitation 60 min post [^18F]16 injection. The whole brain was quickly removed and several brain areas (cerebellum, left and right hippocampus, left and right frontal cortex, and left and right striatum), together with the femur, to detect potential in vivo defluorination of the tracer, were dissected and weighed, and their radioactivity was measured using an automated gamma counter (2480 Gamma counter Wizard, Perkin Elmer). The percentage of injected dose per gram tissue (%ID/g) was calculated by comparison with samples to standard dilutions of the initial injected solution.
Statistical analysis: Results were expressed as mean ± standard error of the mean (SEM). Groups of rats (control vs unlabeled compound 16 preinjection, or control vs celecoxib preinjection) were compared using the Mann–Whitney test. Comparisons of binding between ipsi- and contralateral brain structures were performed using the Wilcoxon one-tailed test. The level of significance was p<0.05 (XLStat software®).

human recombinant COX-2 = molecular target: T2, human recombinant COX-2 (Homo sapiens, UniProt P35354); assay: COX Inhibitor Screening Kit (Cayman), fluorescence-based, COX-2 inhibition; assay type: biochemical; conditions: for fold decrease in COX-2 activity versus analog: 41 and 42 versus 14, 17 versus 16; for COX-2 activity in words: SAR discussion
T2 construct: purchased Cayman Chemical 700100, No. 760111
T2 sequence (P35354 18-604): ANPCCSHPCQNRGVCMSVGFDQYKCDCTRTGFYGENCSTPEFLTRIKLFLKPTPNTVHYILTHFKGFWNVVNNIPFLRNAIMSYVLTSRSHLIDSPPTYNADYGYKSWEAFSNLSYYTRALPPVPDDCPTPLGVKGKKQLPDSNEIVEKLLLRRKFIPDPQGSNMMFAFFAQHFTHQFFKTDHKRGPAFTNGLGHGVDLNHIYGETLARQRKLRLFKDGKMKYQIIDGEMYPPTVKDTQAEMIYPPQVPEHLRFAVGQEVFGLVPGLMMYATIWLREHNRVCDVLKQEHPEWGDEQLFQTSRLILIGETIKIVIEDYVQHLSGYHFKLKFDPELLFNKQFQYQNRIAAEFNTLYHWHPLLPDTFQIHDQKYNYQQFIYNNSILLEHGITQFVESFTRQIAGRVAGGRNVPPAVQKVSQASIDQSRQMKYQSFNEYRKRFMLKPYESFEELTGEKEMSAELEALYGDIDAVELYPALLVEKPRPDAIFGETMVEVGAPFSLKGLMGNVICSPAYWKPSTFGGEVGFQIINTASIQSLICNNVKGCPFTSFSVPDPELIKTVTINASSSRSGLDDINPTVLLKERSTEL

[1] = means of triplicates, except DuP-697 (n = 27) and Celecoxib (n = 5)

Row | SMILES | IC50 (human recombinant COX-2; [1]) | melting point | also measured
1 | NS(=O)(=O)c1ccc(-n2nc3ccccc3c2-c2ccc([18F])cc2)cc1 [[^18F]16, 4-[3-(4-[^18F]Fluorophenyl)indazol-2-yl]benzenesulfonamide] | – | – | defluorination in vivo (COX-2; from femur uptake, rats): negligible defluorination; decrease in accumulation after blocking pretreatment (COX-2; pretreatment with celecoxib or cold 16 (3 mg/kg i.v.) 15 min before radiotracer): In none of these experiments was a decrease in [^18F]16 accumulation observed; bone uptake in the femur (COX-2; rats, 60 min after i.v. injection): 0.154 ± 0.032 %ID/g tissue; accumulation in activated brain areas compared to contralateral striatum and cortex (COX-2; rats, 7 days after intrastriatal QA, 60 min after i.v. injection): no statistically significant difference; passage through the blood-brain-barrier (BBB) (COX-2; rats, preliminary results): low passage
2 | CS(=O)(=O)c1ccc(-n2nc3ccccc3c2-c2ccc(F)cc2)cc1 [compound 14, 3-(4-Fluorophenyl)-2-(4-methylsulfonylphenyl)indazole] | 1.46 ± 0.5 µM | 173 to 175 °C | IC50 (human recombinant COX-2): ~1 µM
3 | CS(=O)(=O)c1ccc(-c2c3ccccc3nn2-c2ccc(F)cc2)cc1 [compound 15, 2-(4-Fluorophenyl)-3-(4-methylsulfonylphenyl)indazole] | 2.3 ± 0.5 µM | 198 to 200 °C | IC50 (human recombinant COX-2): ≤ 2 µM
4 | NS(=O)(=O)c1ccc(-n2nc3ccccc3c2-c2cccc(F)c2)cc1 [compound 17, 4-[3-(3-Fluorophenyl)indazol-2-yl]benzenesulfonamide] | 4.2 ± 0.4 µM | > 250 °C | fold decrease in COX-2 activity versus analog (human recombinant COX-2): 10 fold
5 | Cc1ccc(-c2c3ccccc3nn2-c2ccc(S(C)(=O)=O)cc2)cc1F [compound 18, 3-(3-Fluoro-4-methyl-phenyl)-2-(4-methylsulfonylphenyl)indazole] | 1.03 ± 0.2 µM | 149 to 151 °C | –
6 | CCOc1ccc(-c2c3ccccc3nn2-c2ccc(S(C)(=O)=O)cc2)cc1F [compound 19, 3-(4-Ethoxy-3-fluoro-phenyl)-2-(4-methylsulfonylphenyl)indazole] | > 25 µM | 138 to 140 °C | –
7 | CCOc1ccc(-c2c3ccccc3nn2-c2ccc(S(C)(=O)=O)cc2)cc1C(F)(F)F [compound 20, 3-[4-Ethoxy-3-(trifluoromethyl)phenyl]-2-(4-methylsulfonylphenyl)indazole] | – | 196 to 198 °C | –
8 | CS(=O)(=O)c1ccc(-n2nc3ccccc3c2-c2ccc(Cl)c(C(F)(F)F)c2)cc1 [compound 21, 3-[4-Chloro-3-(trifluoromethyl)phenyl]-2-(4-methylsulfonylphenyl)indazole] | 1.1 ± 0.3 µM | 197 to 199 °C | –
9 | CS(=O)(=O)c1ccc(-n2nc3ccccc3c2-c2ccc(F)nc2)cc1 [compound 22, 3-(6-Fluoro-3-pyridyl)-2-(4-methylsulfonylphenyl)indazole] | > 25 µM | 216 to 218 °C | –
10 | CS(=O)(=O)c1ccc(-n2nc3ccccc3c2-c2ccc(F)nc2F)cc1 [compound 23, 3-(2,6-Difluoro-3-pyridyl)-2-(4-methylsulfonylphenyl)indazole] | > 25 µM | 84 to 86 °C | –
11 | COc1ccc(-c2c3ccccc3nn2-c2ccc(S(C)(=O)=O)cc2)cn1 [compound 24, 3-(6-Methoxy-3-pyridyl)-2-(4-methylsulfonylphenyl)indazole] | 2.98 ± 0.4 µM | 146 to 148 °C | COX-2 activity in words (human recombinant COX-2): moderate activity
12 | COc1cncc(-c2c3ccccc3nn2-c2ccc(S(C)(=O)=O)cc2)c1 [compound 25, 3-(5-Methoxy-3-pyridyl)-2-(4-methylsulfonylphenyl)indazole] | > 25 µM | 215 to 217 °C | –
13 | CCOc1ccc(-c2c3ccccc3nn2-c2ccc(S(C)(=O)=O)cc2)cn1 [compound 26, 3-(6-Ethoxy-3-pyridyl)-2-(4-methylsulfonylphenyl)indazole] | 4.46 ± 0.4 µM | 147 to 149 °C | COX-2 activity in words (human recombinant COX-2): moderate activity
14 | CCOc1ncc(-c2c3ccccc3nn2-c2ccc(S(C)(=O)=O)cc2)cn1 [compound 27, 3-(2-Ethoxypyrimidin-5-yl)-2-(4-methylsulfonylphenyl)indazole] | > 25 µM | 217 to 219 °C | COX-2 activity in words (human recombinant COX-2): totally inactive
15 | CS(=O)(=O)c1ccc(-n2nc3cccnc3c2-c2ccc(F)cc2)cc1 [compound 39, 3-(4-Fluorophenyl)-2-(4-methylsulfonylphenyl)pyrazolo[4,3-b]pyridine] | > 25 µM | 219 to 221 °C | –
16 | CS(=O)(=O)c1ccc(-n2nc3cnccc3c2-c2ccc(F)cc2)cc1 [compound 40, 3-(4-Fluorophenyl)-2-(4-methylsulfonylphenyl)pyrazolo[3,4-c]pyridine] | 4.42 ± 0.6 µM | – | –
17 | CS(=O)(=O)c1ccc(-n2nc3ncccc3c2-c2ccc(F)cc2)cc1 [compound 41, 3-(4-Fluorophenyl)-2-(4-methylsulfonylphenyl)pyrazolo[3,4-b]pyridine] | 4.75 ± 0.6 µM | – | fold decrease in COX-2 activity versus analog (human recombinant COX-2): 4 fold
18 | NS(=O)(=O)c1ccc(-n2nc3ccccc3c2-c2ccc([N+](=O)[O-])cc2)cc1 [compound 42, 4-[3-(4-Nitrophenyl)indazol-2-yl]benzenesulfonamide] | – | 221 to 223 °C | fold decrease in COX-2 activity versus analog (human recombinant COX-2): 4 fold

Source: article PMC6211253, “Design of selective COX-2 inhibitors in the (aza)indazole series. Chemistry, in vitro studies, radiochemistry and evaluations in rats of a [^18F] PET tracer” (Journal of Enzyme Inhibition and Medicinal Chemistry, 2018)
